Earlier results, collected in patent publication US20040052855A1, “Microparticles of biodegradable polymer encapsulating a biologically active substance and sustained release pharmaceutical formulations containing same” (priority 2003, published 2004).

Settings: in water at 20-25° C.

SMILES	solubility in water
CCOC(C)=O [ethyl acetate]	8.70 % (by weight)
ClCCl [dichloromethane]	1.32 % (by weight)
